Measured values from patent publication US20160378912A1, “STRUCTURE-BASED MODELING AND TARGET-SELECTIVITY PREDICTION” (EPIGENETX, LLC, priority 2013, published 2016).

Legend:
HDAC isoforms = assay: HDAC inhibition profiled over several HDAC isoforms (experimental); assay type: biochemical, human; settings: range of pIC50 over the profiled HDAC isoforms
HDAC1 = HDAC1 (Homo sapiens, UniProt Q13547); settings: cited from earlier work
HDAC2 = HDAC2 (Homo sapiens, UniProt Q92769); settings: cited from earlier work
Sequence of HDAC2 (Q92769 whole entry): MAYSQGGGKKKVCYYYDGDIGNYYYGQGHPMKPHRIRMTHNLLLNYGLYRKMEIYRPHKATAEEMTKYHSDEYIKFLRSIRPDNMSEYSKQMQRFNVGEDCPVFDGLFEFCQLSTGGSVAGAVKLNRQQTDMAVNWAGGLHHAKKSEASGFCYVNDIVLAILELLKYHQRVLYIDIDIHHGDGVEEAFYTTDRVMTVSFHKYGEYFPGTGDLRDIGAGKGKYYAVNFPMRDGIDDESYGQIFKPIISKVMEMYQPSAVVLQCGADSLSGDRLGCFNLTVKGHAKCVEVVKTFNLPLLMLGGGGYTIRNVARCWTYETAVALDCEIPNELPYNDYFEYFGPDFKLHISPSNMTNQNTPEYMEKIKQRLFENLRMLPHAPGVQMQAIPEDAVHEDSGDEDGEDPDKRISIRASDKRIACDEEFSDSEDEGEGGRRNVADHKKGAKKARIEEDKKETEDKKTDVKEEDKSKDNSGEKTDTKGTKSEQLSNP

HDAC4 = HDAC4 (Homo sapiens, UniProt P56524); settings: cited from earlier work
Sequence of HDAC4 (P56524 whole entry): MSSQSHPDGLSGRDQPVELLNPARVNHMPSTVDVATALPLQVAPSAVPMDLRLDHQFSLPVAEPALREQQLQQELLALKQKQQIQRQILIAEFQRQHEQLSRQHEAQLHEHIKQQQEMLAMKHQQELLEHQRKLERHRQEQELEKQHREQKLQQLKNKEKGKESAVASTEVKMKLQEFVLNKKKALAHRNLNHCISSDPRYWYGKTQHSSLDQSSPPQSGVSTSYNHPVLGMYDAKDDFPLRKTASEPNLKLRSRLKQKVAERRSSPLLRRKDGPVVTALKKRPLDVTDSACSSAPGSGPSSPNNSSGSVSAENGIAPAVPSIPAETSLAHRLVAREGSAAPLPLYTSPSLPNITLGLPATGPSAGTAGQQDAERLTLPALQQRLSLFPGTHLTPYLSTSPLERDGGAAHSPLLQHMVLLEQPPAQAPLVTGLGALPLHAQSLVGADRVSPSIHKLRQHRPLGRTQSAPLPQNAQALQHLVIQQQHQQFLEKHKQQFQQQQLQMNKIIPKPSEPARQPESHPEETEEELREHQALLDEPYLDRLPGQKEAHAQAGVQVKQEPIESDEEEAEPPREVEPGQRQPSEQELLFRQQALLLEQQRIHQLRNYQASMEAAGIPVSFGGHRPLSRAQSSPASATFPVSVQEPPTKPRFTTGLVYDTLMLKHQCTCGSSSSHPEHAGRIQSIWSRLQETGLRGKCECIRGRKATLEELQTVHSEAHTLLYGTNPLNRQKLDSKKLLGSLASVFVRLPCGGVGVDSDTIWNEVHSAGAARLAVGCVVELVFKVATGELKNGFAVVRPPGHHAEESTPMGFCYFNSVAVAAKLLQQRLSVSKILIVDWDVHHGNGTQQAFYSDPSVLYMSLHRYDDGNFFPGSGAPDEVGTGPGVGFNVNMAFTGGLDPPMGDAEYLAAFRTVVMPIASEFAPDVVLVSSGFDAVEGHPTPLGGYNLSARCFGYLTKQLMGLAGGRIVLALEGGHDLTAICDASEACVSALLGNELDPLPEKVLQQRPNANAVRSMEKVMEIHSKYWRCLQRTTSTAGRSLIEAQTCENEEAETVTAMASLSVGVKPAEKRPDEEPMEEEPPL

HDAC5 = HDAC5 (Homo sapiens, UniProt Q9UQL6); settings: against HDAC5; cited from earlier work
Sequence of HDAC5 (Q9UQL6 whole entry): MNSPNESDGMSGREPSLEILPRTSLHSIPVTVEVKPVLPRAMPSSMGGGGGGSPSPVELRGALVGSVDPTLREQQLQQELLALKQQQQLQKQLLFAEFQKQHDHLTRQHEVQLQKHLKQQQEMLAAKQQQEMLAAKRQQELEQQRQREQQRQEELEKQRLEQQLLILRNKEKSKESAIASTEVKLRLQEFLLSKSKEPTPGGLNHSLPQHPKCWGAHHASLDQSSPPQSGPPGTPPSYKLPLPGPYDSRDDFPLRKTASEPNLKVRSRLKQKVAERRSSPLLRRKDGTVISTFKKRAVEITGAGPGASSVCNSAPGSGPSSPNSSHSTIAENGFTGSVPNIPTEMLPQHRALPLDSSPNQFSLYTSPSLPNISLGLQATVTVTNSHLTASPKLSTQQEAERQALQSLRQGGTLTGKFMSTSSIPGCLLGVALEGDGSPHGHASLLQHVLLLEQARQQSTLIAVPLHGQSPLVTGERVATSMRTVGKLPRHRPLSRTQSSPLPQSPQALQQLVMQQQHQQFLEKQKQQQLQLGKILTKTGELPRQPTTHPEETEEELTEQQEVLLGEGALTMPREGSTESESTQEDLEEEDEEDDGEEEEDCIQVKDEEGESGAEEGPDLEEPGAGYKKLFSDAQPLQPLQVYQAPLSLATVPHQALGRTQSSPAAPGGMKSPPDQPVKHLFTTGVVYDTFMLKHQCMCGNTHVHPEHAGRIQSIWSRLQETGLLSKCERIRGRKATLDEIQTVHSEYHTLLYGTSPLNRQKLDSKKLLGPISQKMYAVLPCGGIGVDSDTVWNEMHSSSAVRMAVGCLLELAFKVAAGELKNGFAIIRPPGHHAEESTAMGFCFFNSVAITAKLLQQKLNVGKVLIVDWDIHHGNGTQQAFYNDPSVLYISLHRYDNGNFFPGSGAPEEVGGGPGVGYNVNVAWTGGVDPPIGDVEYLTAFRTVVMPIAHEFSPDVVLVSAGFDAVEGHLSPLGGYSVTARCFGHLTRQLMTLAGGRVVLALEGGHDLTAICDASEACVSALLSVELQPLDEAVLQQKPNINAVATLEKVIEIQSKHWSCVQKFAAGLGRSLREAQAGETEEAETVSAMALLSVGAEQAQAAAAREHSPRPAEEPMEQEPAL

HDAC7 = molecular target: T1, HDAC7 (Homo sapiens, UniProt Q8WUI4); settings: cited from earlier work
T1 sequence (Q8WUI4 1-952): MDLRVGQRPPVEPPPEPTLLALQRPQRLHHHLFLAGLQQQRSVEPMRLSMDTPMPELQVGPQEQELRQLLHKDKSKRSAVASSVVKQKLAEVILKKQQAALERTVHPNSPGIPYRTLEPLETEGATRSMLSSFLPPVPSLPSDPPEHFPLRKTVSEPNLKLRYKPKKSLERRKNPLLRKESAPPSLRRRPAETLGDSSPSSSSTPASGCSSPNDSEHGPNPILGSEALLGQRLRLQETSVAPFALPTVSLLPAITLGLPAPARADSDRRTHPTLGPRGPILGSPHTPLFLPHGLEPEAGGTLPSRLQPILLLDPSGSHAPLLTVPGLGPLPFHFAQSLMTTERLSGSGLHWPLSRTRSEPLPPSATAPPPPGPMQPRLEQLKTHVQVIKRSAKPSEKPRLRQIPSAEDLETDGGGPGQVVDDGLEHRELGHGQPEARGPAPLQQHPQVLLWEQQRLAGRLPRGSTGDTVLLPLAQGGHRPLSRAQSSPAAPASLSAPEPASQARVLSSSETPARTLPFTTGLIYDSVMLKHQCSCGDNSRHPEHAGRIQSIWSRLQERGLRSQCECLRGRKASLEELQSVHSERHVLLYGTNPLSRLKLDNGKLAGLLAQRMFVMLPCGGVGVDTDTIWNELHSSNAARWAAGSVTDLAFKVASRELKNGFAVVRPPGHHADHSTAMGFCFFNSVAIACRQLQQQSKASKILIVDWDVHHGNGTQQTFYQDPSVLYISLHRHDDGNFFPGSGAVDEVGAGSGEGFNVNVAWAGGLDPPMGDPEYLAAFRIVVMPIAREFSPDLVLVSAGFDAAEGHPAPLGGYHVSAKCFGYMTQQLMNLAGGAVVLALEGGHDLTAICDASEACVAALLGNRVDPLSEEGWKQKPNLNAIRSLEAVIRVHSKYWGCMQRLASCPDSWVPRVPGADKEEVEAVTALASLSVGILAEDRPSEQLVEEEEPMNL

HDAC10 = molecular target: T2, HDAC10 (Homo sapiens, UniProt Q969S8); settings: cited from earlier work
T2 sequence (Q969S8 1-669): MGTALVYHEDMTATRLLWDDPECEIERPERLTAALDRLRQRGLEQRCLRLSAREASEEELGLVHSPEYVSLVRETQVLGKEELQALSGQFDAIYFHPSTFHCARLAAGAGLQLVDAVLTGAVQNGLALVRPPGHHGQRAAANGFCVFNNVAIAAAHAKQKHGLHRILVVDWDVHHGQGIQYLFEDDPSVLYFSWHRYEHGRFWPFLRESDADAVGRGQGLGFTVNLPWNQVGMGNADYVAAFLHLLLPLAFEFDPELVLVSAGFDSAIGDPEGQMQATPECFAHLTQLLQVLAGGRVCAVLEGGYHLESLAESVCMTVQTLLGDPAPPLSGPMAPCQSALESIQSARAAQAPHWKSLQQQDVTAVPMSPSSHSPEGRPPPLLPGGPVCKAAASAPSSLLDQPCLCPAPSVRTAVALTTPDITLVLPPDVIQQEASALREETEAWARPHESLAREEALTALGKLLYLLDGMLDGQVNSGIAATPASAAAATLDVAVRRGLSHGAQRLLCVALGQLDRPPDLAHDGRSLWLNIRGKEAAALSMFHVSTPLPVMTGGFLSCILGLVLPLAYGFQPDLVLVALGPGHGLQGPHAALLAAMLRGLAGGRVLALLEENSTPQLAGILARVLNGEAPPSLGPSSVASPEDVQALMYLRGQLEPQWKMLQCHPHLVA

[1] = experimental value of modeled complex
[2] = training set, read-out: HDACs inhibitory activities IC50

Sequence of HDAC1 (Q13547 whole entry): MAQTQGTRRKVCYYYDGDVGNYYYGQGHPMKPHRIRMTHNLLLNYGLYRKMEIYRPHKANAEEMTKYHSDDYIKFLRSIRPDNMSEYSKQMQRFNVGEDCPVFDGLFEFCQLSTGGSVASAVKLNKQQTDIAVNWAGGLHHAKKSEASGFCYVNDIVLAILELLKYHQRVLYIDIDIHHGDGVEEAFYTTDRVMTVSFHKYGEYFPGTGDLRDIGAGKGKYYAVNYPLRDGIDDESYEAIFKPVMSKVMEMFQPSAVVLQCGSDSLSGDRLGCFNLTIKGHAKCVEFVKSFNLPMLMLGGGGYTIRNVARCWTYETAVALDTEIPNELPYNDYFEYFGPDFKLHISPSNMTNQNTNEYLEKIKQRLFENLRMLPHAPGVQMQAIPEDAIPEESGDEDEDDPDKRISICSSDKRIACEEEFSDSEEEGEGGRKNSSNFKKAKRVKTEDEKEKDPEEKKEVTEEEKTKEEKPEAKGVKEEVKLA

CCCC(=O)O [NABUT, Butyrate]
Bioactivity range (ΔpIC50) DpIC50 (HDAC isoforms): 1.95 | pIC50exp (HDAC1; [1]): 3.496 | pIC50 (HDAC1; training set composition): 3.50 | IC50 (HDAC1; [2]): 319 µM | pIC50 (HDAC2; training set composition): 4.54 | IC50 (HDAC2; [2]): 28.9 µM | pIC50 (HDAC4; training set composition): 4.52 | IC50 (HDAC4; [2]): 30 µM | pIC50 (lower end of training set activity range) (HDAC5): 2.7 | pIC50 (HDAC7; training set composition): 4.52 | IC50 (HDAC7; [2]): 30 µM | pIC50exp (HDAC10; [1]): 3.535 | pIC50 (HDAC10; training set composition): 3.54 | IC50 (HDAC10; [2]): 292 µM
